# Measured values reported in patent publication US9750757B2, “Methods of prevention or treatment for pathologic thrombosis or inflammation” (THOMAS JEFFERSON UNIVERSITY, priority 2013, dated 2017).
# “Also recorded” adds a separate entry of the source.
# How the values were obtained:
# [1] = tested on: platelets, PAR4-AP-induced aggregation; assay: PAR4-AP-induced aggregation of washed platelets (light transmission aggregometry); assay type: cell-based; details: washed human platelets incubated 30 min with inhibitor; sub-threshold concentrations of PAR4-AP
# Method: (§1) The indicated concentrations of LDN-193,188 were incubated for 30 min with washed platelets and stimulated with sub-threshold concentrations of activating PAR peptides. […] Biol. Chem. 2004, 279, 18434-18439). […] For assessment of calcium mobilization, platelets were re-calcified to a final concentration of 1 mM followed by pre-incubation with Fluo-4 AM for 10 min. The platelets were then stimulated with PAR4-AP and calcium mobilization was measured using the Accuri C6 flow cytometer (Yeung et al., Mol. Pharmacol. 2012, 81, 420-430). In both Houston and Philadelphia, technical variation was minimized by use of the same highly-trained technicians, same lots of reagents and same instruments throughout the duration of the study. […] This score correlated strongly with standard assessment of maximal percent aggregation, but inclusion of slope (which was a minor contributor to the overall score, and highly related to maximal aggregation) allowed distinction among platelets with the same maximal aggregation value. This score was highly reproducible in 10 subjects studied weekly for three or four weeks.
# [2] = tested on: platelets, PAR1-AP-induced aggregation; assay: PAR1-AP-induced aggregation of washed platelets (light transmission aggregometry); assay type: cell-based; details: washed human platelets incubated 30 min with inhibitor; sub-threshold concentrations of PAR1-AP
# Method: as §1
# [3] = target: T1, PC-TP (Homo sapiens, UniProt Q9UKL6); details: Wagel et al. 2008; cited from earlier work
# T1 sequence (Q9UKL6 1-214): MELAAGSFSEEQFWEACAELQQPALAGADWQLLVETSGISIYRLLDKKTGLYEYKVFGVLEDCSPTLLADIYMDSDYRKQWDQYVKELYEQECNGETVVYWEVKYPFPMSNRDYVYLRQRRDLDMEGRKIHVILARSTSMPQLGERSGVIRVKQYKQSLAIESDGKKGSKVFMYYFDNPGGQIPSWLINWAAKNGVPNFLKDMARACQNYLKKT
# [4] = target: T1, PC-TP; details: Shishova et al. 2011; cited from earlier work
# [5] = tested on: platelet rich plasma (PRP); assay: Light transmission aggregometry in platelet rich plasma, agonist-induced maximal aggregation (PRAX1); assay type: cell-based, human; details: for Mean percent maximal aggregation, Black: PRP of black subjects; for Mean percent maximal aggregation, White: PRP of white subjects
# Method: (1) Houston studies. A complete blood count and mean platelet volume were obtained using an ABX Micros 60 CS (Horiba ABX, Irvine, Calif., USA). Using light transmission aggregometry, maximal percent aggregation and slope of aggregation at 10 min in platelet rich plasma (PRP) treated with: 0.5 mg/ml arachidonic acid, 4 μM ADP, 1 μM and 2 μM PAR1 activating peptide (PAR1-AP), and 50 μM and 75 μM PAR4 activating peptide (PAR4-AP) were measured. (2) Philadelphia studies. Light transmission aggregometry of washed platelets was used to assess thrombin-induced platelet aggregation without or with a 2 min pre-incubation with 20 μM BMS-200261 (BMS, PAR1-specific antagonist) (Quinton et al., J. Biol. Chem. 2004, 279, 18434-18439). A difference in the efficacy of the PAR1 inhibitor was observed between the pilot and replicate studies, but validation of inhibitor activity was confirmed for both studies (FIG. 1B inset and FIG. 7E). For assessment of calcium mobilization, platelets were re-calcified to a final concentration of 1 mM followed by pre-incubation with Fluo-4 AM for 10 min. The platelets were then stimulated with PAR4-AP and calcium mobilization was measured using the Accuri C6 flow cytometer (Yeung et al., Mol. Pharmacol. 2012, 81, 420-430). In both Houston and Philadelphia, technical variation was minimized by use of the same highly-trained technicians, same lots of reagents and same instruments throughout the duration of the study. Because multiple concentrations were used to activate PAR1 and PAR4 to induce platelet aggregation, an integrated score was developed that combined these values to determine a single index that represented each individual's agonist response. This score correlated strongly with standard assessment of maximal percent aggregation, but inclusion of slope (which was a minor contributor to the overall score, and highly related to maximal aggregation) allowed distinction among platelets with the same maximal aggregation value. This score was highly reproducible in 10 subjects studied weekly for three or four weeks.
smiles,measurement,setting,value
"Cc1cc(C)nc(NS(=O)(=O)c2ccc(NC(=O)NC(=O)c3ccc(Cl)cc3Cl)cc2)n1 [LDN-193,188, 2,4-dichloro-N-(4-(N-(4,6-dimethylpyrimidin-2-yl)sulfamoyl)phenylcarbamoyl)-benzamide]",Effect on PAR4-AP-induced platelet aggregation,[1],prevented aggregation; also recorded: blocked; also recorded: does block
same,Effect on PAR1-AP-induced platelet aggregation,[2],does not block
same,Phosphatidylcholine transfer activity of PC-TP,[3],inhibitor
same,Displacement of phosphatidylcholine from PC-TP,[4],displaces phosphatidylcholine from the lipid binding pocket
same,Thermal stability of PC-TP,[4],increases the thermal stability
Nc1ncnc2c1ncn2[C@@H]1O[C@H](COP(=O)(O)OP(=O)(O)O)[C@@H](O)[C@H]1O [ADP],Fold difference (Black/White),[5]; 4 μM ADP,0.91 fold
same,"Mean percent maximal aggregation, Black",[5]; 4 μM ADP,40.89%
same,"Mean percent maximal aggregation, White",[5]; 4 μM ADP,45.04%
"CCCCC/C=C\C/C=C\C/C=C\C/C=C\CCCC(=O)O [AA, arachidonic acid]",Fold difference (Black/White),[5]; 500 μg/ml AA,0.99 fold
same,"Mean percent maximal aggregation, Black",[5]; 500 μg/ml AA,86.57%
same,"Mean percent maximal aggregation, White",[5]; 500 μg/ml AA,87.21%
